Values quoted from earlier work as cited in patent US11066448B2, “Zika as a cell penetrating peptide for delivery to the brain” (priority 2018, dated 2021).

Tests used:
[1] = human plasma; MMAE linked
[2] = enzymatic hydrolysis, doxorubicin release

Substance | stability relative to Val-Cit [1] | half-life of cleavage [2] | stability relative to hydrazone linker [1]
Phe-Lys | substantially less stable | 8 min | 
Val-Lys |  | 9 min | 
valine-citrulline [Val-Cit] |  | 240 min | over 100 times
